Non-standard residues stand in square brackets, D forms with d. No end group written: not given here. Hyp = O=C(O)[C@@H]1C[C@@H](O)CN1; Aib = CC(C)(N)C(=O)O
Legend:
[1] = system: pericytes; assay: Loss of pericytes in retinal blood vessels of db/db mice (elastase digest, PAS staining); type: in vivo; conditions: Figures 5 and 6
Source text: In the early stage of nonproliferative diabetic retinopathy, blood flows into the tissue due to the loss of pericytes surrounding the capillaries, causing the macula to swell. Macular edema is a representative symptom of nonproliferative diabetic retinopathy in which the focus of objects becomes blurred, the field of vision darkens, and visual acuity temporarily decreases. Therefore, in order to evaluate the efficacy of the peptide of the present invention in inhibiting loss of pericytes, an experiment was performed as follows.
The drug was administered as eye drops (ED) to 12-week-old db/db mice twice a day (BID) or three times a day (TID) for about 12 weeks. In order to evaluate the state of blood vessels in the retina, the eyes of the extracted mice were fixed in 10% formalin for a week. Thereafter, the fixed eye tissue was treated with elastase to separate the retinal blood vessels and PAS staining was performed. The ratio of vascular endothelial cells and pericytes present in the blood vessel walls and the number of acellular blood vessels were quantified to evaluate the permeability of the blood vessels in the retina.

[2] = system: Streptozotocin (STZ) induced diabetic retinopathy mouse model; assay: Electroretinography in streptozotocin induced diabetic retinopathy mouse model; type: in vivo, C57BL/6 mice; conditions: electroretinogram (ERG); eye drops (ED) twice a day for about 17 weeks; versus STZ model group; comparator aflibercept; Figure 3
Description: The streptozotocin induced mouse model is a type 1 diabetes mellitus model that induces diabetes mellitus by injecting the antibiotic streptozotocin (STZ) into the mouse's peritoneum to damage the beta cells that produce insulin in the pancreas. It is one of the models used in diabetic retinopathy research, and it is a model that can confirm the early stage of diabetic retinopathy from the time of onset of diabetes mellitus.
After fasting for 3-4 hours before administration, 8-week-old C57BL/6 mice were administered with streptozotocin (STZ) dissolved in Na-citrate buffer and buffer at a dose of 50 mg/kg intraperitoneally for 5 days. The drug used at this time was prepared immediately before administration and used quickly. One week after the last STZ intraperitoneal administration, blood glucose was measured, and only mice with blood glucose exceeding 250 mg/dL were determined to be diabetic mice and used in the experiment. The drug was administered as eye drops (ED) twice a day for about 17 weeks starting from the day after model production, and 10 µg was administered intraocularly (intravitreal injection, IVT) once a month. […] The retina was stimulated with a single white light to obtain a response value, and the amplitude from the trough of the a wave to the peak of the b wave was measured, which was evaluated as an index of retinal function.

[3] = system: IL-1β; assay: Gene expression by microarray in zebrafish diabetic retinopathy model; type: in vivo, zebrafish Tg[flk:EGFP]; conditions: eyeball RNA, 4 days treatment with glucose and peptide, Figure 14
Description: (§1) Among the embryos obtained by mating adult zebrafish Tg[flk:EGFP], embryos expressing a fluorescent protein were selected and used. On the 6th day after fertilization, the embryos were treated with glucose and the peptide of the present invention (002-175) for 4 days, and then euthanized by adding 4 mg/ml of Tricane. The eyeballs were extracted, and RNA was extracted and analyzed using microarray. In addition, Trizol was added to the extracted eyeballs, and the tissue was homogenized to extract mRNA. The extracted mRNA was quantified using a NanoDrop spectrophotometer, and cDNA was synthesized using RNA with a purity of 1.8 or higher. The synthesized cDNA was subjected to polymerization reaction of SYBR Green Master Mix, primers, and genes, and the concentration of each gene was divided by GAPDH to obtain the corrected concentration of the gene.

[4] = system: MMP9; assay: as above; type: in vivo, zebrafish Tg[flk:EGFP]; conditions: eyeball RNA, 4 days treatment with glucose and peptide, Figure 14
Description: as §1

[5] = system: NF-kB; assay: as above; type: in vivo, zebrafish Tg[flk:EGFP]; conditions: eyeball RNA, 4 days treatment with glucose and peptide, Figure 14
Description: as §1

[6] = system: oxygen induced retinopathy (OIR) mouse model; assay: Inhibition of neovascularity in oxygen induced retinopathy mouse model (Isolectin B4 flat mount, fluorescence imaging); type: in vivo; conditions: eye drops (ED) for 5 days from day 12 to day 16 after birth; versus OIR model group; positive control aflibercept IVT once on day 12; Figures 1 and 2
Description: In order to evaluate the efficacy of the peptide of the present invention in inhibiting neovascularity in an oxygen induced retinopathy (OIR) mouse model, an experiment was performed as follows.
After stabilizing the mice born with the mother (new born mice) for about 3 to 4 days, they were raised under 75% hyperoxic conditions for 5 days from day 7 to day 11 after birth. Thereafter, they were raised under normoxic conditions until day 17 after birth. Drugs were administered while they were raised under normoxic conditions. The peptide of the present invention (002-175) was administered as eye drops (ED) for 5 days from day 12 to day 16 after birth, and as a positive control group, aflibercept was administered intraocularly (intravitreal injection, IVT) once on day 12 after birth. Thereafter, the mouse eyes were extracted, fixed in 10% formalin for 1 hour, and then flat mounted. The retina was divided into four equal parts centered on the optic nerve, and treated with Isolectin B4 (1 mM CaCl2, 1:200) overnight (O/N). Thereafter, they were spread on a slide glass, sprayed with mounting solution, covered with a cover glass, and photographed under a fluorescence microscope. The fluorescence images of blood vessels in the retina were obtained, and the number and area of new blood vessels and the area of blood vessels were calculated using the imageJ program.

[7] = system: JNK; assay: Western blot of retinal tissue, db/db mouse model; type: in vivo, db/db mice; conditions: eye drops BID or TID for about 12 weeks, versus db/db mouse group, Figure 11
Description: (§2) The drug was administered as eye drops (ED) to 12-week-old db/db mice twice a day (BID) or three times a day (TID) for about 12 weeks. In order to evaluate the expression level of proteins in the retina, retinal tissue was separated from the extracted mouse eyes and treated with RIPA solution to extract proteins in the retina. Western blot was performed to evaluate the expression level of factors related to neovascularization and vascular permeability in the retina.

[8] = system: COX-2; assay: Western blot of retinal tissue, db/db mouse model; type: in vivo, db/db mice; conditions: eye drops three times a day (TID) for about 12 weeks, versus db/db mouse group, Figure 10
Description: as §2

[9] = system: vascular endothelial growth factor (VEGF); assay: Western blot of retinal tissue, db/db mouse model; type: in vivo, db/db mice; conditions: eye drops three times a day (TID) for about 12 weeks, versus db/db mouse group, Figure 8
Description: as §2

[10] = system: Akt; assay: Western blot of retinal tissue, db/db mouse model; type: in vivo, db/db mice; conditions: eye drops three times a day (TID) for about 12 weeks, versus db/db mouse group, Figure 9
Description: as §2

[11] = system: ZO-1; assay: Immunofluorescence (IF) staining of zebrafish eye, diabetic retinopathy model; type: in vivo; conditions: tight junction protein; versus high glucose group; Figures 16 and 17
Description: (§3) On the 6th day after fertilization (6dpf, 6 days post-fertilization), zebrafish fry were fixed with 4% paraformaldehyde for 3-4 hours, and then treated with 30% sucrose, and treated overnight at 4°C. O.C.T blocks were made, and sections were performed, and then TUNEL staining and immunofluorescence (IF) staining were performed.

[12] = system: VEGF; assay: as above; type: in vivo; conditions: outer nuclear layer (ONL) of the retina; versus high glucose group; Figures 16 and 17
Description: as §3

[13] = system: GFAP; assay: as above; type: in vivo; conditions: outer nuclear layer (ONL) of the retina; versus high glucose group; Figures 16 and 17
Description: as §3

[14] = system: vascular endothelial growth factor (VEGF); assay: Western blot of retinal tissue, STZ induced diabetic retinopathy mouse model; type: in vivo, C57BL/6 mice; conditions: about 17 weeks of administration, versus STZ model group, Figure 7
Description: (§4) After fasting for 3-4 hours before administration, 8-week-old C57BL/6 mice were administered with streptozotocin (STZ) dissolved in Na-citrate buffer and buffer at a dose of 50 mg/kg intraperitoneally for 5 days. The drug used at this time was prepared immediately before administration and used quickly. One week after the last STZ intraperitoneal administration, blood glucose was measured, and only mice with blood glucose exceeding 250 mg/dL were determined to be diabetic mice and used in the experiment. The drug was administered as eye drops (ED) twice a day for about 17 weeks starting from the day after model production, and 10 µg was administered intraocularly (intravitreal injection, IVT) once a month. In order to evaluate the expression level of proteins in the retina, retinal tissue was separated from the extracted mouse eyes and treated with RIPA solution to extract proteins in the retina. Western blot was performed to evaluate the expression level of factors related to neovascularization and vascular permeability in the retina.

[15] = system: Akt; assay: as above; type: in vivo, C57BL/6 mice; conditions: about 17 weeks of administration, versus STZ model group, Figure 7
Description: as §4

[16] = system: TUNEL positive cells in the inner nuclear layer (INL) of the retina; assay: TUNEL assay in retinal tissue, zebrafish diabetic retinopathy model; type: in vivo; conditions: versus high glucose group, Figures 16 and 17
Description: as §3

[17] = system: zebrafish retinal blood vessels; assay: Inhibition of retinal vasodilation in zebrafish diabetic retinopathy model (fluorescence microscopy); type: in vivo, zebrafish Tg[flk:EGFP]; conditions: Figures 12 and 13
Description: Among the embryos obtained by mating adult zebrafish Tg[flk:EGFP], embryos expressing a fluorescent protein were selected and used. On the 6th day after fertilization, the embryos were treated with glucose and the peptide of the present invention (002-175) for 4 days, and then euthanized by adding 4 mg/ml of Tricane. After fixing with 4% paraformaldehyde for 3 days, the eyeballs were separated using 3% trypsin, and the changes in the blood vessels in the separated eyeballs were observed using a fluorescence microscope.

[18] = system: IL-1β; assay: Gene expression by real-time PCR in zebrafish diabetic retinopathy model; type: in vivo, zebrafish Tg[flk:EGFP]; conditions: corrected by GAPDH, eyeball mRNA, Figure 15
Description: as §1

[19] = system: MMP9; assay: as above; type: in vivo, zebrafish Tg[flk:EGFP]; conditions: corrected by GAPDH, eyeball mRNA, Figure 15
Description: as §1

[20] = system: ikkγ; assay: as above; type: in vivo, zebrafish Tg[flk:EGFP]; conditions: corrected by GAPDH, eyeball mRNA, Figure 15
Description: as §1

[21] = system: ikkα; assay: as above; type: in vivo, zebrafish Tg[flk:EGFP]; conditions: corrected by GAPDH, eyeball mRNA, Figure 15
Description: as §1

[22] = system: ikkβ; assay: as above; type: in vivo, zebrafish Tg[flk:EGFP]; conditions: corrected by GAPDH, eyeball mRNA, Figure 15
Description: as §1

[23] = system: NF-kB; assay: as above; type: in vivo, zebrafish Tg[flk:EGFP]; conditions: corrected by GAPDH, eyeball mRNA, Figure 15
Description: as §1

[24] = system: db/db mouse model; assay: Electroretinography in db/db mouse model; type: in vivo, db/db mice; conditions: electroretinogram (ERG), Figure 4
Description: The drug was administered as eye drops (ED) to 12-week-old db/db mice twice a day (BID) or three times a day (TID) for about 12 weeks. In order to evaluate retinal function, the mice were dark-adapted for more than 12 hours before measuring electroretinogram (ERG), and then the mice were subjected to pupillary dilation and anesthetized, and electrodes were placed on the skin, tail, and cornea to measure ERG. The retina was stimulated with a single white light to obtain a response value, and the amplitude from the trough of the a wave to the peak of the b wave was measured, which was evaluated as an index of retinal function.

[25] = eye drops (ED) BID or TID for about 12 weeks, versus db/db mouse group
[26] = eye drops three times a day (TID) for about 12 weeks

[Hyp]GQE[Aib]LA [002-175]
pericytes [1, 25]: inhibition of the decrease in pericytes | pericytes, effect of TID compared with BID [1, 26]: more excellent effect compared to the group administered twice a day (BID) | amplitude of the a wave and the b wave [2]: increase in the amplitude of the a wave and the b wave to a level similar to that of the group administered with aflibercept | gene expression of IL-1β [3]: decrease in the gene expression | gene expression of MMP9 [4]: decrease in the gene expression | gene expression of NF-kB [5]: decrease in the gene expression | area of new blood vessels [6]: decrease in the area of new blood vessels to a level similar to that of the group administered with aflibercept | phosphorylation level of JNK [7]: decrease in the phosphorylation level of JNK | expression of COX-2 [8]: decrease in the expression of COX-2 | expression of vascular endothelial growth factor (VEGF) [9]: decrease in the expression of vascular endothelial growth factor | phosphorylation level of Akt [10]: decrease in the phosphorylation level of Akt | expression of ZO-1 [11]: increase in expression and a recovery pattern | expression of VEGF [12]: decrease in the expression of VEGF and GFAP | expression of GFAP [13]: decrease in the expression of VEGF and GFAP | expression of vascular endothelial growth factor (VEGF) [14]: decrease in the expression of vascular endothelial growth factor | phosphorylation level of Akt [15]: decrease in the phosphorylation level of Akt | TUNEL positive cells [16]: decrease in TUNEL positive cells | diameter of retinal blood vessels ([17]; 100 µg/ml, 4 days, high glucose (130 mM glucose)): decrease in the diameter of retinal blood vessels to a level similar to that of the normal group | diameter of retinal blood vessels ([17]; 200 µg/ml, 4 days, high glucose (130 mM glucose)): decrease in the diameter of retinal blood vessels to a level similar to that of the normal group | diameter of retinal blood vessels ([17]; treated with glucose and peptide for 4 days from 6th day after fertilization, versus high glucose (130 mM glucose) group): decrease in the diameter of retinal blood vessels | gene expression of IL-1β [18]: decrease in the gene expression | gene expression of MMP9 [19]: decrease in the gene expression | gene expression of ikkγ [20]: decrease in the gene expression | gene expression of ikkα [21]: decrease in the gene expression | gene expression of ikkβ [22]: decrease in the gene expression | gene expression of NF-kB [23]: decrease in the gene expression | amplitude of the a wave and the b wave [24, 25]: increase in the amplitude of the a wave and the b wave | amplitude of the a wave and the b wave, effect of TID compared with BID [24, 26]: more excellent effect compared to the group administered twice a day (BID)

Source: patent publication EP4674425A1, “COMPOSITION FOR TREATING DIABETIC RETINOPATHY, COMPRISING PEPTIDE” (EyebioKorea, Inc., priority 2023, dated 2026)
